# Reference: US6652835B1, “Targeting multimeric imaging agents through multilocus binding” (Epix Medical, Inc., priority 1999, dated 2003)
# Several values for one entry are separate records, joined by “and”; a condition that tells them apart may be missing. Identical values can stand only once.
# Assays:
# [1] = Relaxivity of the free agent in the absence of target (20 MHz, 37° C.); type: physicochemical; details: no target
# Method: (§1) The compounds of the present invention were evaluated for relaxivity using a Bruker NMS-120 Minispec NMR spectrometer operating at 0.47 Tesla (20 MHz H-1 Larmor frequency) and 37° C. T1 of water protons was determined by an inversion recovery pulse sequence using the instrument's software. Relaxivity was determined in the presence of the target (typically 4.5% HSA) by preparing 4 individual samples. The first contained only 4.5% HSA in phosphate buffered saline (PBS), and the other three contained ca. 20, 30, and 40 μM Gd(III), respectively, in addition to 4.5% HSA in PBS. The samples are incubated at 37 degrees C. for at least 15 minutes to ensure temperature equilibration before the T1 measurement is performed. The Gd(III) content of the samples is determined by inductively coupled plasma—mass spectrometry (ICP-MS). The relaxivity (per Gd(III) ion) is determined by plotting the relaxation rate (1/T1) in s^−1 versus the Gd(III) concentration in mM. The slope of a linear fit to the data gives the relaxivity. The relaxivity of the compounds in the absence of target is also determined in an analogous manner, except there is no target present.
# [2] = target: T1, Human Serum Albumin (HSA) (Homo sapiens, UniProt P02768); test: Average bound relaxivity in the presence of 4.5% HSA (20 MHz, 37° C.); type: physicochemical; details: for R1bound/Gd^+3 mM^−1s^−1 (20 MHz) / Total R1bound mM^−1s^−1 (20 MHz): bound to HSA; for R1bound/Gd^+3 mM^−1s^−1 (20 MHz): per Gd(III); for Total R1bound mM^−1s^−1 (20 MHz): whole molecule
# Source text: To understand Table 1, it is important to define the extent to which a target-binding MRI contrast agent can achieve its maximum possible relaxivity. This maximum relaxivity for a particular contrast agent is approximately equal to the relaxivity of the molecule when bound to a target (R1bound), such as Human Serum Albumin (HSA). The average ? bound is a normalized measure of the average relaxivity for all bound species under a standard set of conditions (such as a specific target or protein concentration, drug concentration, temperature, etc.) that is weighted by the bound population of each species. Therefore, since the value of ? bound is a normalized quantity, comparisons of relaxivities can be made among different molecules in the bound state by comparing values for ? bound. Comparison of the calculated ? bound values provides a convenient method for comparing compounds irrespective of their affinities for a target.
# Calculating the average ( ? bound) requires measuring the relaxivity of the free chelate (R1free) as well as the observed relaxivity (R1obs) and percent binding of the agent to a target solution typically containing 4.5% of the target, e.g., HSA. The R1obs is a mole fraction (x) weighted average of R1free and R1bound: [formula]
# as §1
# The concentration of species bound to the target under these conditions is determined in a separate experiment using e.g. ultrafiltration or equilibrium dialysis. Knowledge of the amount of species bound to the target, the relaxivity in the presence of the target, and the relaxivity in the absence of the target allows the calculation of the average bound relaxivity as described herein.
# [3] = target: T1, Human Serum Albumin (HSA); test: Percent binding to HSA (ultrafiltration); details: target HSA
# Source text: The extent of binding of a TBM to a target, such as HSA or fibrin, can be assessed by a variety of equilibrium binding methods. For example, binding to HSA can be measured by ultrafiltration. In a typical binding measurement using ultrafiltration, the targeting group is mixed with 4.5% weight/volume HSA in a pH 7.4 buffer. The sample is loaded into a commercially available centrifugation apparatus equipped with a 30 KDa molecular weight cutoff filter (Millipore Ultrafree MC Low Binding Regenerated Cellulose 30 KDa mol. wt. cutoff catalog #UFC3LTK00), permeable to the targeting group, but not HSA. A small portion (5-10%) of the sample volume is filtered by centrifugation at 2000×g for 20 min through the cutoff filter, and the concentration of unbound targeting group in the sample is measured in the filtrate. The concentration of species bound to the target under these conditions is determined in a separate experiment using e.g. ultrafiltration or equilibrium dialysis. Knowledge of the amount of species bound to the target, the relaxivity in the presence of the target, and the relaxivity in the absence of the target allows the calculation of the average bound relaxivity as described herein.
# [4] = target: T2, clot containing human fibrin (Homo sapiens, UniProt P02671+P02675+P02679); test: Rabbit jugular vein clot model, MR imaging; type: in vivo; details: MR images after injection (FIG. 14)
# T2 construct: host or cells: clot formed in the clamped rabbit jugular vein from added human fibrinogen and thrombin
# T2 sequence (P02671 36-629 limits assumed): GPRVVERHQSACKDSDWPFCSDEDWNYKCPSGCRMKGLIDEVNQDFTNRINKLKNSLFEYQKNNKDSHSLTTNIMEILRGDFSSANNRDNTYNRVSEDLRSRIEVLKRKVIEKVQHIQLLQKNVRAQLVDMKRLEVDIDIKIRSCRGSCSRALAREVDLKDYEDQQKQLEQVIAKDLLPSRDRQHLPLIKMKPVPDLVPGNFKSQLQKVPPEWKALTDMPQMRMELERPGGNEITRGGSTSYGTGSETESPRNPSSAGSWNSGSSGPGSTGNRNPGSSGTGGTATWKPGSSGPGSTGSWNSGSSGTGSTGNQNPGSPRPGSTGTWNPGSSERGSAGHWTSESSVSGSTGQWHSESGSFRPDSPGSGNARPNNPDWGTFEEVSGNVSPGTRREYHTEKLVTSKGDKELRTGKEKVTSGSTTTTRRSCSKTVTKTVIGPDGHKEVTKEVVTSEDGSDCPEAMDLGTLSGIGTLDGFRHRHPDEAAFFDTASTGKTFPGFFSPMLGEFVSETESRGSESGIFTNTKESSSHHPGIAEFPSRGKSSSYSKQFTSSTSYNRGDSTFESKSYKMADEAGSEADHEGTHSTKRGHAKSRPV
# T2 sequence (P02675 45-491 limits assumed): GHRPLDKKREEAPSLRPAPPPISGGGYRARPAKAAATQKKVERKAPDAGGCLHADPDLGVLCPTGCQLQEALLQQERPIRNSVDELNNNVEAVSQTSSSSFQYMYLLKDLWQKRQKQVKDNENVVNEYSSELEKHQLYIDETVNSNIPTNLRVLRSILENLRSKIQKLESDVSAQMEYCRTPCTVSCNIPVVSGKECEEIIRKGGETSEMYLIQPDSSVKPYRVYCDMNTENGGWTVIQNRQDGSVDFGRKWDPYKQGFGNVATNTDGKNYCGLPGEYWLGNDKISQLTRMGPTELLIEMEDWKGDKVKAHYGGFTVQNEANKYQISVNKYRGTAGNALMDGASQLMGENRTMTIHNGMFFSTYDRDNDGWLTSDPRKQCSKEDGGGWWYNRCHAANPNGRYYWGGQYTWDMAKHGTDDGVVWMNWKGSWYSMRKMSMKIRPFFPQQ
# T2 sequence (P02679 27-437 isoform P02679-2 limits assumed): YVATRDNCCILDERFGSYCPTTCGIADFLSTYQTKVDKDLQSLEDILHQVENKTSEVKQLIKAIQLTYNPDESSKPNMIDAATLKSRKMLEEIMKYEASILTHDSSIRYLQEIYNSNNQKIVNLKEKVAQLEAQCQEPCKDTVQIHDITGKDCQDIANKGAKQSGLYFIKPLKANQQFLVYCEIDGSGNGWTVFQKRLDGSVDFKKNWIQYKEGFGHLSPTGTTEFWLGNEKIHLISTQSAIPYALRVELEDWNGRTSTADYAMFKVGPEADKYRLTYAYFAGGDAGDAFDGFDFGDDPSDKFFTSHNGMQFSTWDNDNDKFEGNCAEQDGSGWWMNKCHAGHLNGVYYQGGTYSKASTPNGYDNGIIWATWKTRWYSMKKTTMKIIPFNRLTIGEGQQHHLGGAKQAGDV
# Method: One animal model that may be used is the rabbit jugular vein clot model in which the jugular vein is clamped. The vein is clamped at two locations, and the rabbit blood between the clamps is removed. Human fibrinogen, rabbit red blood cells and thrombin are added to the vein between the clamps to generate a clot containing human fibrin. The clot is typically aged for 30 minutes.
# In the rabbit jugular model, a typical machine is a 1.5 Tesla using a spoiled gradient (SPGR) MRI at 36/5/30 deg). Alternatively, a 3D GRE 44/10/30 deg. method of imaging may be used with a 1.5 Tesla machine. Alternatively, IR 2000/10/700 methods may be employed with a 1.5 Tesla.
# FIG. 14 is a reproduction of a color photograph of the images obtained in an experiment using the assay given in Example 1.
# T1 sequence (P02768 25-609): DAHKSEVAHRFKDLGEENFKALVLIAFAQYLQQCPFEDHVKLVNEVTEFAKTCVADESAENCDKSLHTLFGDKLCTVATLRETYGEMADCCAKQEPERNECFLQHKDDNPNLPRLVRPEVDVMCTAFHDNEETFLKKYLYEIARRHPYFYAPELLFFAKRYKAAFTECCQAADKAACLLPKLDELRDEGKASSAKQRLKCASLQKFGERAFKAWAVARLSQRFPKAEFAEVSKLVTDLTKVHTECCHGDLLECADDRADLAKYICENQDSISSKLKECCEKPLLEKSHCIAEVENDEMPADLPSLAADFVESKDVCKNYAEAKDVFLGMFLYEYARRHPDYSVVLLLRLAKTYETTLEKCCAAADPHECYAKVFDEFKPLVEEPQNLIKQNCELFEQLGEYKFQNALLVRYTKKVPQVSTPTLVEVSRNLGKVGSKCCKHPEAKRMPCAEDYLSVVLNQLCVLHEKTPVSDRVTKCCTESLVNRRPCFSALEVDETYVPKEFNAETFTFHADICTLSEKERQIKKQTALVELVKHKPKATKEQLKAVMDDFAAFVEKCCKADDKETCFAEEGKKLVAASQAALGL
smiles,measurement,setting,value
Cc1cc(C)c(-c2ccc(CN(CCN(CCN(CCNC(=O)CNC(=O)CC(C(=O)[O-])N(CCN(CC(=O)[O-])CC(=O)[O-])CCN(CC(=O)[O-])CC(=O)[O-])C(=O)CNC(=O)CC(C(=O)[O-])N(CCN(CC(=O)[O-])CC(=O)[O-])CCN(CC(=O)[O-])CC(=O)[O-])C(=O)CNC(=O)CC(C(=O)[O-])N(CCN(CC(=O)[O-])CC(=O)[O-])CCN(CC(=O)[O-])CC(=O)[O-])C(=O)CNC(=O)CC(C(=O)[O-])N(CCN(CC(=O)[O-])CC(=O)[O-])CCN(CC(=O)[O-])CC(=O)[O-])cc2)c(C)c1.[Gd+3].[Gd+3].[Gd+3].[Gd+3] (stereo not drawn) [Compound M8-07],free relaxivity,[1],9.2 mM⁻¹ s⁻¹
same,ratio of R1bound to R1free,[2]; HSA,1.7
same,R1bound/Gd^+3 mM^−1s^−1 (20 MHz),[2],16.0 mM⁻¹ s⁻¹ and 16 mM⁻¹ s⁻¹
same,Total R1bound mM^−1s^−1 (20 MHz),[2],64.0 mM⁻¹ s⁻¹ and 64 mM⁻¹ s⁻¹
same,% Bound,[3],64.1%
Cc1cc(C)c(-c2ccc(CN(CCN(CCN(CCN(Cc3ccc(-c4c(C)cc(C)cc4C)cc3)C(=O)CNC(=O)CC(C(=O)[O-])N(CCN(CC(=O)[O-])CC(=O)[O-])CCN(CC(=O)[O-])CC(=O)[O-])C(=O)CNC(=O)CC(C(=O)[O-])N(CCN(CC(=O)[O-])CC(=O)[O-])CCN(CC(=O)[O-])CC(=O)[O-])C(=O)CNC(=O)CC(C(=O)[O-])N(CCN(CC(=O)[O-])CC(=O)[O-])CCN(CC(=O)[O-])CC(=O)[O-])C(=O)CNC(=O)CC(C(=O)[O-])N(CCN(CC(=O)[O-])CC(=O)[O-])CCN(CC(=O)[O-])CC(=O)[O-])cc2)c(C)c1.[Gd+3].[Gd+3].[Gd+3].[Gd+3] (stereo not drawn) [Compound M8-08],free relaxivity,[1],10.3 mM⁻¹ s⁻¹
same,ratio of R1bound to R1free,[2]; HSA,4.3
same,"fold increase in total relaxivity, two TBMs versus one TBM (M8-07)","[2]; HSA, relative to M8-07",2.75 fold
same,R1bound/Gd^+3 mM^−1s^−1 (20 MHz),[2],44.1 mM⁻¹ s⁻¹
same,Total R1bound mM^−1s^−1 (20 MHz),[2],176.5 mM⁻¹ s⁻¹
same,% Bound,[3],93.7%
CCCCc1ccc(C(=O)N(Cc2ccccc2)C2c3ccccc3CC2OP(=O)([O-])OCCC#CCN2CCN(C(=O)CNC(=O)CC(C(=O)[O-])N(CCN(CC(=O)[O-])CC(=O)[O-])CCN(CC(=O)[O-])CC(=O)[O-])CCN(C(=O)CNC(=O)CC(C(=O)[O-])N(CCN(CC(=O)[O-])CC(=O)[O-])CCN(CC(=O)[O-])CC(=O)[O-])CCN(C(=O)CNC(=O)CC(C(=O)[O-])N(CCN(CC(=O)[O-])CC(=O)[O-])CCN(CC(=O)[O-])CC(=O)[O-])CC2)cc1.[Gd+3].[Gd+3].[Gd+3] (stereo not drawn) [Compound M8-10],R1bound/Gd^+3 mM^−1s^−1 (20 MHz),[2],25.7 mM⁻¹ s⁻¹
same,Total R1bound mM^−1s^−1 (20 MHz),[2],77.1 mM⁻¹ s⁻¹
same,% Bound,[3],66.1%
"O=C([O-])CN(CCN(CC(=O)[O-])CC(=O)O)CCN(CC(=O)[O-])CC(=O)O.[Gd+3] [Gd-DTPA, gadolinium diethylenetriaminepentaacetic acid]",imaging of / binding to the clot,[4],does not bind
